Reference: ChEMBL document CHEMBL4052645, “Discovery of potent and efficacious pyrrolopyridazines as dual JAK1/3 inhibitors” (Bioorg Med Chem Lett, 2017)

Assays:
Mus musculus = test: In vivo inhibition of JAK1/JAK3 in Balb/c mouse assessed as reduction in IL15-induced STAT5 phosphorylation at […], po after 4 hrs; assay type: functional, organism-based
[1] = molecular target: NUAK family SNF1-like kinase 1 (Homo sapiens) (UniProt O60285); test: Inhibition of human NUAK1 (25 to I332 residues) expressed in bacterial expression system assessed as residual activity at 50 nM by KINOMEscan assay relative to control
[2] = molecular target: Serine/threonine-protein kinase ULK1 (Homo sapiens) (UniProt O75385); test: Inhibition of human ULK1 (M1 to T309 residues) expressed in mammalian expression system assessed as residual activity at 50 nM by KINOMEscan assay relative to control
[3] = molecular target: Mitogen-activated protein kinase kinase kinase 2 (Homo sapiens) (UniProt Q9Y2U5); test: Inhibition of wild-type human partial length MAP3K2 (S315 to H619 residues) expressed in mammalian expression system assessed as residual activity at 50 nM by Kinomescan method relative to control
[4] = molecular target: Serine/threonine-protein kinase ULK2 (Homo sapiens) (UniProt Q8IYT8); test: Inhibition of wild-type human partial length ULK2 (M1 to S301 residues) expressed in mammalian expression system assessed as residual activity at 50 nM by Kinomescan method relative to control
[5] = molecular target: Ribosomal protein S6 kinase alpha-3 (Homo sapiens) (UniProt P51812); test: Inhibition of wild-type human partial length N-terminal RSK2 kinase domain 1 (M1 to D394 residues) expressed in mammalian expression system assessed as residual activity at 50 nM by Kinomescan method relative to control
[6] = molecular target: Casein kinase II subunit alpha (Homo sapiens) (UniProt P68400); test: Inhibition of wild-type human full length CK2A1 (M1 to Q391 residues) expressed in mammalian expression system assessed as residual activity at 50 nM by Kinomescan method relative to control
[7] = system: Phosphatidylinositol 4,5-bisphosphate 3-kinase catalytic subunit alpha isoform (Homo sapiens), P42336 [H1047Y]; test: Inhibition of human partial length PIK3CA H1047Y mutant (R108 to N1068 residues) expressed in mammalian expression system assessed as residual activity at 50 nM by Kinomescan method relative to control
[8] = molecular target: MAP/microtubule affinity-regulating kinase 3 (Homo sapiens) (UniProt P27448); test: Inhibition of wild-type human full length MARK3 (M1 to L729 residues) expressed in bacterial expression system assessed as residual activity at 50 nM by Kinomescan method relative to control
[9] = molecular target: Death-associated protein kinase 2 (Homo sapiens) (UniProt Q9UIK4); test: Inhibition of wild-type human full length DAPK2 (M1 to S370 residues) expressed in bacterial expression system assessed as residual activity at 50 nM by Kinomescan method relative to control
[10] = molecular target: Mitogen-activated protein kinase 1 (Homo sapiens) (UniProt P28482); test: Inhibition of wild-type human full length ERK2 (M1 to S360 residues) expressed in bacterial expression system assessed as residual activity at 50 nM by Kinomescan method relative to control
[11] = molecular target: Myosin-IIIa (Homo sapiens) (UniProt Q8NEV4); test: Inhibition of wild-type human partial length MYO3A (M1 to K338 residues) expressed in bacterial expression system assessed as residual activity at 50 nM by Kinomescan method relative to control
[12] = molecular target: Serine/threonine-protein kinase PLK3 (Homo sapiens) (UniProt Q9H4B4); test: Inhibition of wild-type human partial length PLK3 (A42 to L334 residues) expressed in mammalian expression system assessed as residual activity at 50 nM by Kinomescan method relative to control
[13] = molecular target: Atypical kinase COQ8B, mitochondrial (Homo sapiens) (UniProt Q96D53); test: Inhibition of wild-type human full length ADCK4 (M1 to S544 residues) expressed in bacterial expression system assessed as residual activity at 50 nM by Kinomescan method relative to control
[14] = molecular target: Megakaryocyte-associated tyrosine-protein kinase (Homo sapiens) (UniProt P42679); test: Inhibition of wild-type human full length CTK (M43 to P508 residues) expressed in mammalian expression system assessed as residual activity at 50 nM by Kinomescan method relative to control
[15] = molecular target: Wee1-like protein kinase (Homo sapiens) (UniProt P30291); test: Inhibition of wild-type human partial length WEE1 (M291 to K575 residues) expressed in bacterial expression system assessed as residual activity at 50 nM by Kinomescan method relative to control
[16] = molecular target: Peripheral plasma membrane protein CASK (Homo sapiens) (UniProt O14936); test: Inhibition of wild-type human partial length CASK (M1 to H315 residues) expressed in mammalian expression system assessed as residual activity at 50 nM by Kinomescan method relative to control
[17] = molecular target: Activin receptor type-1 (Homo sapiens) (UniProt Q04771); test: Inhibition of wild-type human ALK2 (C188 to C509 residues) expressed in bacterial expression system assessed as residual activity at 50 nM by Kinomescan method relative to control
[18] = molecular target: Epithelial discoidin domain-containing receptor 1 (Homo sapiens) (UniProt Q08345); test: Inhibition of wild-type human partial length DDR1 (R565 to V876 residues) expressed in bacterial expression system assessed as residual activity at 50 nM by Kinomescan method relative to control
[19] = molecular target: Dual specificity tyrosine-phosphorylation-regulated kinase 2 (Homo sapiens) (UniProt Q92630); test: Inhibition of wild-type human full length DYRK2 (M1 to S528 residues) expressed in mammalian expression system assessed as residual activity at 50 nM by Kinomescan method relative to control
[20] = molecular target: Microtubule-associated serine/threonine-protein kinase 1 (Homo sapiens) (UniProt Q9Y2H9); test: Inhibition of wild-type human partial length MAST1 (S346 to V730 residues) expressed in mammalian expression system assessed as residual activity at 50 nM by Kinomescan method relative to control
[21] = molecular target: Serine/threonine-protein kinase SBK1 (Homo sapiens) (UniProt Q52WX2); test: Inhibition of wild-type human partial length SBK1 (P23 to P348 residues) expressed in mammalian expression system assessed as residual activity at 50 nM by Kinomescan method relative to control
[22] = molecular target: Myosin light chain kinase, smooth muscle (Homo sapiens) (UniProt Q15746); test: Inhibition of wild-type human full length SMMLCK (M854 to E1845 residues) expressed in mammalian expression system assessed as residual activity at 50 nM by Kinomescan method relative to control
[23] = molecular target: TGF-beta receptor type-2 (Homo sapiens) (UniProt P37173); test: Inhibition of wild-type human partial length TGFBR2 (I218 to K567 residues) expressed in bacterial expression system assessed as residual activity at 50 nM by Kinomescan method relative to control
[24] = molecular target: NT-3 growth factor receptor (Homo sapiens) (UniProt Q16288); test: Inhibition of wild-type human partial length TRKC (Q531 to G825 residues) expressed in mammalian expression system assessed as residual activity at 50 nM by Kinomescan method relative to control

Sequence of Megakaryocyte-associated tyrosine-protein kinase (Homo sapiens) (P42679 whole entry, the tested form may be a part): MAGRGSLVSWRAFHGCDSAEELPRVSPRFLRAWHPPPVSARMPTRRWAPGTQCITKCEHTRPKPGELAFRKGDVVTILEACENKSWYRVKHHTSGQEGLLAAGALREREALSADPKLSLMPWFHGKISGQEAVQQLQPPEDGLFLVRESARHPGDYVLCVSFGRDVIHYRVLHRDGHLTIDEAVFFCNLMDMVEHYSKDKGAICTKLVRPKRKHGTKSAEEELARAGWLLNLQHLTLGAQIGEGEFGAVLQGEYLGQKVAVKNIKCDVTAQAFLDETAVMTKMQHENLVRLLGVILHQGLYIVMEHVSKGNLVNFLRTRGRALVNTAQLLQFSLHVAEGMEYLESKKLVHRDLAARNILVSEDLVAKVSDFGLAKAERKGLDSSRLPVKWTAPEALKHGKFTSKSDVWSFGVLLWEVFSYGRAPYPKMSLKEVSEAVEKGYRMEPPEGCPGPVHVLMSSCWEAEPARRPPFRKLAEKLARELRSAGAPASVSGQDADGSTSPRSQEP
Sequence of Serine/threonine-protein kinase SBK1 (Homo sapiens) (Q52WX2 whole entry, the tested form may be a part): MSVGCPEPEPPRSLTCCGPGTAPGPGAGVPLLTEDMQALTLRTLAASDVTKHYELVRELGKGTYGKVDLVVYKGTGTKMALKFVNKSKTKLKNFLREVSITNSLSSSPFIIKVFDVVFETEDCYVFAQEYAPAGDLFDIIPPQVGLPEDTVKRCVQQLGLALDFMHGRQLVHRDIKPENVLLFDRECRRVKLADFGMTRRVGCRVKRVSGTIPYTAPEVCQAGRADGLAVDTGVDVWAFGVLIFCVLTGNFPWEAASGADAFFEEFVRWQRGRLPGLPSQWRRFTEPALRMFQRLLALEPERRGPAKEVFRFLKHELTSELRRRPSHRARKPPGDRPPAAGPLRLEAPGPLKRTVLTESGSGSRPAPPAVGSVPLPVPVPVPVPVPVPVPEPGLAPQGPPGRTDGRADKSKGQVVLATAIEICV
Sequence of Microtubule-associated serine/threonine-protein kinase 1 (Homo sapiens) (Q9Y2H9 whole entry, looked up, the tested form may be a part): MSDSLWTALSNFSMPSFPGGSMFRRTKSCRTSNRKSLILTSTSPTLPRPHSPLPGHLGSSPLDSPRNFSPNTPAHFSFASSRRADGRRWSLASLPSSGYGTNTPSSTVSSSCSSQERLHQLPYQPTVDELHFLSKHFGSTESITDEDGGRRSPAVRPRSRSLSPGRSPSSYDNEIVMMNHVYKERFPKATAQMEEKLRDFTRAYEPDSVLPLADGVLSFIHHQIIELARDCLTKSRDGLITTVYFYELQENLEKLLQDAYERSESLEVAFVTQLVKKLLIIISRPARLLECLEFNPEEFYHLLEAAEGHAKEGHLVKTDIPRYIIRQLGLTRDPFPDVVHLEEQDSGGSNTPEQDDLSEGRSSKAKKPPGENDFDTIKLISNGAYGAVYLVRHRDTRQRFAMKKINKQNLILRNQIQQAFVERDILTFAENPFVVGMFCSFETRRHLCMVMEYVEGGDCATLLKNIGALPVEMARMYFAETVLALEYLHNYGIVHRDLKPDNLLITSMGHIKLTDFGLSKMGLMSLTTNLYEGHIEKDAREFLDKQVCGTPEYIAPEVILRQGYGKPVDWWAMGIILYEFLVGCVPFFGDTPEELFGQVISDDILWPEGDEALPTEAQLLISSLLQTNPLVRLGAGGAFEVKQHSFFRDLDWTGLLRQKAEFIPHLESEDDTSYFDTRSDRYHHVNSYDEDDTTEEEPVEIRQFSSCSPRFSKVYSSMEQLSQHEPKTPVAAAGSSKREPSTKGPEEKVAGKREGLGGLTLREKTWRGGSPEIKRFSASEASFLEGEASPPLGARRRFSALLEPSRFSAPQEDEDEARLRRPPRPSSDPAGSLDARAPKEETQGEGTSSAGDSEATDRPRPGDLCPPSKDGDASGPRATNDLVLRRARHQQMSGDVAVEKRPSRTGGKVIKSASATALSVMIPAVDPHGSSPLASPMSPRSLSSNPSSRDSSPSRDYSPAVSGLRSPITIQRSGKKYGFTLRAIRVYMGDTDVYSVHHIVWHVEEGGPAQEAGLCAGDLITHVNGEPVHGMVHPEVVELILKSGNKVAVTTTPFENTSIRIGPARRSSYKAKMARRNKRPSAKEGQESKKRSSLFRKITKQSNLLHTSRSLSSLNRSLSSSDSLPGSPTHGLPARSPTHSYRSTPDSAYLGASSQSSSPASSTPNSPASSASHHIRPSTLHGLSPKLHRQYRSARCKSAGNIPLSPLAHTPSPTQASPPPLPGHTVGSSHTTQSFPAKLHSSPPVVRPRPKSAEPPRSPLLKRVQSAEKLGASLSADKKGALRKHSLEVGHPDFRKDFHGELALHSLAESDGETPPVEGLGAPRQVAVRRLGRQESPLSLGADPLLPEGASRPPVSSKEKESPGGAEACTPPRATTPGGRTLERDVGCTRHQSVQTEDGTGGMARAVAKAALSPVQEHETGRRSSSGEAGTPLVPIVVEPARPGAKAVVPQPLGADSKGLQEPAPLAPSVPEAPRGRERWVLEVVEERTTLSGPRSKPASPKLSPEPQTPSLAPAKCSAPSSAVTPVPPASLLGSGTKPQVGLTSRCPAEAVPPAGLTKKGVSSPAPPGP
Sequence of Activin receptor type-1 (Homo sapiens) (Q04771 whole entry, the tested form may be a part): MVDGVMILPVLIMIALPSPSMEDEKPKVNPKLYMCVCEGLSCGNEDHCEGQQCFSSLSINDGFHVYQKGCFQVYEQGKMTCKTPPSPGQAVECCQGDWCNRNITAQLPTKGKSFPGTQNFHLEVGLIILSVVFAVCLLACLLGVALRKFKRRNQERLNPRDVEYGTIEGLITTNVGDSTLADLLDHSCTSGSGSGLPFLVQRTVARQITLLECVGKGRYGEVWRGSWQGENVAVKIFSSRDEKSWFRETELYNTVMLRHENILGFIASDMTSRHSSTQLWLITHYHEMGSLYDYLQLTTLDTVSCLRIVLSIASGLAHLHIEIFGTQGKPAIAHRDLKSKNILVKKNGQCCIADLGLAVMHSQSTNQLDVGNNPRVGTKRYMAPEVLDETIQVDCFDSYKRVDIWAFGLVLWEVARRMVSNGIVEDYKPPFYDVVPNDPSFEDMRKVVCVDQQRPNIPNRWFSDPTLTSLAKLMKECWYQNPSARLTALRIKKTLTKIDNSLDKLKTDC
Sequence of Serine/threonine-protein kinase PLK3 (Homo sapiens) (Q9H4B4 whole entry, looked up, the tested form may be a part): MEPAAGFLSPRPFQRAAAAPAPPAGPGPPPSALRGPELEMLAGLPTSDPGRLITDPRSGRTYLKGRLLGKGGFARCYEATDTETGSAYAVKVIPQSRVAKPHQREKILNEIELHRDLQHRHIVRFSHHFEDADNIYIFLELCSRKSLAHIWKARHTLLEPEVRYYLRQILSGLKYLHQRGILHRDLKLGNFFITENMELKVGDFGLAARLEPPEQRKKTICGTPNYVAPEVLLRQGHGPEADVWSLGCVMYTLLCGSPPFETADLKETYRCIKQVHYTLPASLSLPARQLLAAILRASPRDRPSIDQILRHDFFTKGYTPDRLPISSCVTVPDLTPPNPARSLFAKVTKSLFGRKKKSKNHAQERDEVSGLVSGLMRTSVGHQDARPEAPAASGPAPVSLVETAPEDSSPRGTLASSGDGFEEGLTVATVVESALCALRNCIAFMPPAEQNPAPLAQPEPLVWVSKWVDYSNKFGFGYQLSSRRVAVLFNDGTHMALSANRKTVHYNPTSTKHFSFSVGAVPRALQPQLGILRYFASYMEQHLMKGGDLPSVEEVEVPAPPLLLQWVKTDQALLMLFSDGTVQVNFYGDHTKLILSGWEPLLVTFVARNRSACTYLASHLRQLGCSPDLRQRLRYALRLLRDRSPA
Sequence of Wee1-like protein kinase (Homo sapiens) (P30291 whole entry, looked up, the tested form may be a part): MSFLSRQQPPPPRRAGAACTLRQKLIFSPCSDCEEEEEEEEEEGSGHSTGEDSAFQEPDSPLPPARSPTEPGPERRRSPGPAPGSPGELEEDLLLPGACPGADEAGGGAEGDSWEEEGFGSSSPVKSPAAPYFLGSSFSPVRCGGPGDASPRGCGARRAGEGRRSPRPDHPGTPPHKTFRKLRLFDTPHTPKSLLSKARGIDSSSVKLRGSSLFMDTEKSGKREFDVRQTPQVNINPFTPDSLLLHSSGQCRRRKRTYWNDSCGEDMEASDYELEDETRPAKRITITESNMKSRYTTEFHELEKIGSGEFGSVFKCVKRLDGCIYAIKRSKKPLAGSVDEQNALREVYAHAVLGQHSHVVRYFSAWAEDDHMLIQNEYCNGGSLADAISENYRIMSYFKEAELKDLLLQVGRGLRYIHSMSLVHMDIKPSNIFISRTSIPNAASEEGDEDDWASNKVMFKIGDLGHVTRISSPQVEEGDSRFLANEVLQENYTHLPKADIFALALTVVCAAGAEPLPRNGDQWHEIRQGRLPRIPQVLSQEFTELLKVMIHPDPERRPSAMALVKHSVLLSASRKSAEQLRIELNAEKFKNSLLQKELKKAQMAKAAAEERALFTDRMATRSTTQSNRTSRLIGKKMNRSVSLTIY
Sequence of Dual specificity tyrosine-phosphorylation-regulated kinase 2 (Homo sapiens) (Q92630 whole entry, the tested form may be a part): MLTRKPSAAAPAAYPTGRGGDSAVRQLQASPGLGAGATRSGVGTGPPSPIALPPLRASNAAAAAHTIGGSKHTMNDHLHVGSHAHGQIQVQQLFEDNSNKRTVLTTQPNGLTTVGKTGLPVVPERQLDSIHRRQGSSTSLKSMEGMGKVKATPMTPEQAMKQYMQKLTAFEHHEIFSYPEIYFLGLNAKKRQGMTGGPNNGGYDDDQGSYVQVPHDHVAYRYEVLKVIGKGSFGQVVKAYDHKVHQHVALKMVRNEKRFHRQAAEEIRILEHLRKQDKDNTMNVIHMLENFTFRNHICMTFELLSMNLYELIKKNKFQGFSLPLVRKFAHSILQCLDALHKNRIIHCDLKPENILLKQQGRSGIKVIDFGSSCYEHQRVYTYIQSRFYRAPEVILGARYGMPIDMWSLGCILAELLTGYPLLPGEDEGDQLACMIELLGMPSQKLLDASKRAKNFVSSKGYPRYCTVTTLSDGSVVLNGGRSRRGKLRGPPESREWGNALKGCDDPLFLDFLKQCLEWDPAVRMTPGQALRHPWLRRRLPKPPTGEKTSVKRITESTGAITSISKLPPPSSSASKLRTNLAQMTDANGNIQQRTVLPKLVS

Row | SMILES | EC50 (Mus musculus) [nM] | Activity [1] [%] | Activity [2] [%] | Activity [3] [%] | Activity [4] [%] | Activity [5] [%] | Activity [6] [%] | Activity [7] [%] | Activity [8] [%] | Activity [9] [%] | Activity [10] [%] | Activity [11] [%] | Activity [12] [%] | Activity [13] [%] | Activity [14] [%] | Activity [15] [%] | Activity [16] [%] | Activity [17] [%] | Activity [18] [%] | Activity [19] [%] | also measured
1 | CC1(C)[C@H](Nc2c(C(N)=O)cnn3cc(-c4ccccc4)cc23)CC[C@]1(C)N | 125 | 2 | 27 | 30 | 36 | 47 | 56 | 66 | 68 | 71 | 82 | 87 | 89 | 91 | 95 | 97 | 98 | 100 | 100 | 100 | Activity [20]: 100%; Activity [21]: 100%; Activity [22]: 100%; Activity [23]: 100%; Activity [24]: 100%
2 | COc1ccc(-c2cc3c(N[C@@H]4CC[C@](C)(N)C4(C)C)c(C(N)=O)cnn3c2)cn1 | 67 | 6 | 61 | 46 | 75 | 74 | 100 | 100 | 100 | 92 | 100 | 94 | 95 | 100 | 85 | 100 | 95 | 96 | 83 | 100 | Activity [20]: 98%; Activity [21]: 72%; Activity [22]: 87%; Activity [23]: 100%; Activity [24]: 100%
